Experimental data published in ChEMBL document CHEMBL1828594, “Synthesis, stereochemistry and SAR of a series of minodronate analogues as RGGT inhibitors” (Eur J Med Chem, 2011).

Experiments:
J774 = test: Cytotoxicity against mouse J774 cells assessed as reduction in cell viability after 48 hrs; type: functional, cell-based; settings: J774, 48 h
[1] = Inhibition of RGGT assessed as [3H]GGPP incorporation into Rab1a protein after 30 mins
[2] = Inhibition of RGGT in cell-based assay assessed as inhibition of Rab11 prenylation after 24 hrs by Western blot analysis

Question: For O=C(O)C(F)(Cc1cnc2ccccn12)P(=O)(O)O (stereo not given), which IC50 (J774) is on record?
Answer: The IC50 was 60 µM.

Question: And the IC50 [1]?
Answer: The IC50 was 6.11 µM.

Question: What about the LED [2] of the same molecule?
Answer: Its LED is 6 µM.

Question: Which IC50 (J774) does the source give for O=C(O)C(Cc1cnc2ccccn12)P(=O)(O)O (racemic) here?
Answer: Its IC50 is > 600 µM.

Question: What about the IC50 [1] of the same molecule?
Answer: Its IC50 is 13.4 µM.

Question: What about the LED [2] of the same molecule?
Answer: Its LED is 12 µM.

Question: Which results are given for O=C(O)C(Cl)(Cc1cnc2ccccn12)P(=O)(O)O (racemic)?
Answer: IC50 (J774): > 400 µM; IC50 [1]: 7.5 µM; LED [2]: 12 µM

Question: Which IC50 (J774) does the source give for O=C(O)C(Br)(Cc1cnc2ccccn12)P(=O)(O)O (racemic) here?
Answer: The IC50 was > 600 µM.

Question: What about the IC50 [1] of the same molecule?
Answer: The IC50 was 5.56 µM.

Question: What about the LED [2] of the same molecule?
Answer: The LED was 25 µM.

Question: For O=C(O)C(O)(Cc1cnc2ccccn12)P(=O)(O)O (racemic) [(2-HYDROXY-3-IMIDAZO[1,2-A]PYRIDIN-3-YL-2-PHOSPHONOPROPIONIC ACID (ENANTIONMERS)], which IC50 (J774) is on record?
Answer: Its IC50 is 50 µM.

Question: What about the IC50 [1] of the same molecule?
Answer: The IC50 was 1.24 µM.

Question: What about the LED [2] of the same molecule?
Answer: Its LED is 3 µM.
